Measurements taken from patent publication US20070172514A1, “Materials and methods for improving livestock productivity” (priority 2006, published 2007).
Marks after values point to notes of the source that are not given here.

Key:
D×L×M weanling piglets = assay: Enhanced growth in swine: weanling piglets fed cysteamine hydrochloride; assay type: in vivo; conditions: 30 days; for ADG, Improvement (%): (text: 90 g per ton of feed), hydrochloride
Excerpt: Total of 100 heads of unhealthy D×L×M weanling piglets (approx. 6.78 kg) were divided into 2 groups—Control group (50 heads) & Cysteamine group (50 heads). The Control group was fed with basal diet. […]

pregnant pig sow = assay: Enhanced productivity in swine: pregnant sows fed cysteamine hydrochloride; assay type: in vivo, swine (D×L×M hybrid swine); parameters: Live piglet born rate, Improvement / Live piglet born rate, Improvement (%) / Birth weight per litter, Improvement: dose or concentration left out as unconfirmed; conditions: for Birth weight per litter, Improvement (%) / Birth weight per piglet, Improvement (%) / Body weight of weaned piglet, Improvement (%): hydrochloride
Excerpt: A total of 14 heads of pregnant pig sow (which were the offspring of Duroc×Landrace×Meishan swine, also referred to herein as D×L×M hybrid swine) (84 days of pregnant) were divided into 2 groups: Control group (6) and Cysteamine group (8). The Control group was fed with basal diet. […]

small-fat-tail sheep = assay: Enhanced productivity in small-fat-tail sheep; assay type: in vivo; conditions: 35 days
Method: In the following example, the test animals were sheep (small-fat-tail sheep). The experiment was performed at the Goat Trial Farm of Beijing Shengshifumin Muslim Food Company during the thirty-five day period from Dec. 2, 2004 to Jan. 5, 2005. In total, 40 heads of small-fat-tail sheep with the average weight of 26.5 kg were randomly divided into Control group (20) and Cysteamine group (20). The control group was fed with basal diet only, while the Cysteamine group was fed a diet that included 900 g cysteamine HCl per tonnage of diet. The standard basal diet of the farm was employed for this trial.

crossbreed sheep = assay: Enhanced productivity in crossbreed sheep; assay type: in vivo; conditions: 35 days
[1] = tested on: Ximenta'er hybridizing beef cattle; assay: Enhanced productivity in beef cattle; assay type: in vivo
Method: In the following example, the test animals were beef cattle (Ximenta'er hybridizing beef cattle). The experiment was performed at the Hebei Hengshui Geling Beef Cattle Raising Farm dur the period from Oct. 10 to Dec. 21, 2002. In total, 64 heads of around 350 kg Ximenta'er hybridizing beef cattle were selected and separated into 4 groups randomly according to the principle of equalizing age, weight, grace, fur/hair condition, etc. Each group had 16 heads of beef cattle. The Control Group, Test Group I, II & III were fed a composition comprising 0, 1.5, 3, 6 g/head/day of cysteamine HCl, respectively. As noted in Tables 8, 9, and 10 below, adding a cysteamine compound to the basal diet of beef cattle can increase daily weight gain.

fattening pigs = assay: Carcass composition/appearance of fattening pigs; assay type: in vivo, swine
Method: 72 piglets were divided evenly into control group and Cysteamine group. The control group was treated with basal diet while the Cysteamine group was treated with basal diet added with 150 g cysteamine hydrochloride per ton of feed. Upon reaching the market weight of 85-90 kg, five animals from each treatment were slaughtered after fasting for one day. During slaughter, the animals were stunned with a stunning gun, bled, dehaired and eviscerated. The carcass was split […] and then chilled for 24 hours prior to fabrication. The slaughter and the chilled carcass weights were recorded. The chilled carcass weight expressed as percentage of the slaughter weight represents the dressed yield. The wholesale and retail cuts of each animals were weighed and recorded. The values were expressed as the percentage of the live weight and of the chilled carcass weight.
The area of the longissimus dorsi (LD) muscle was measured on the 12th rib of the right part of the carcasses. This was done by tracing the outline of the whole LD muscle on acetate paper and the area was measured with the use of a grading method.

pig intestine villi = assay: Intestine villi length and histology in pigs; assay type: in vivo, swine; conditions: 30 days
Method: 72 piglets were evenly divided into control group and Cysteamine group. The control group was treated with basal diet only, while the Cysteamine group was added with 150 g of cysteamine hydrochloride per ton of feed. The trial was lasted for 30 days.
Immediately after evisceration, tissue samples from the small intestine, large intestine, liver, and pancreas of pigs from each treatment group were collected. The collected samples were placed in properly labeled containers containing 10% buffered neutral formalin solution. The tissue samples were fixed for 78 hours before they were processed for routine histological examination using the paraffin embedding technique (well-known to the skilled artisan).
Sections approximately 5 to 6 μ thick were cut from paraffin blocked tissues using Optical 820 Rotary Microtome (Scientific Instruments Division, Buffalo, N.Y.). Some sections were stained with hematoxylin and eosin (H & E), others with Alcian blue. H & E stained sections were used for the examination of the general histology of the intestinal tract while the Alcian blue stained sections were used for goblet cells identification. The stained sections were examined under various magnifications using a light microscope.
The number and length (μm) of villi in the small intestine were counted per microscopic field; the thickness of the tunica muscularis in the small and large intestine were measured using American Optical Micrometer (American Optical Company, Buffalo, N.Y.) calibrated in millimeters. The mucosal folds in the large intestine, the density of intestinal glands (crypts), the appearance of the surface epithelium were all observed. The general histology of the liver and pancreas were examined and compared between Cysteamine treated and non-Cysteamine treated groups. Goblet cell density in the Cysteamine treated and non-Cysteamine treated pigs was compared through visual examination using light microscope.

[2] = vs control, 90 g cysteamine hydrochloride per ton of feed
[3] = late phase pregnant sow, (text: 150 g per ton feed)
[4] = relative to control, (text: 150 g per ton feed)
[5] = relative to control, Dosage (text: 150 g per ton feed)
[6] = feed consumption, 20 head, 900 g/tonnage
[7] = in words, 900 g cysteamine HCl per tonnage of diet
[8] = relative to control, 900 g/tonnage
[9] = Test III, 6 g/head/day, p<0.05 vs Control
[10] = 150 g per ton of feed, slaughter at 85-90 kg
[11] = in words, 150 g per ton of feed

Cl.NCCS [Cysteamine HCl, cysteamine hydrochloride]
Total feed consumption (D×L×M weanling piglets; 50 head): 1076.1 kg | Total final weight (D×L×M weanling piglets; 50 head): 973 kg | Total weight gain (D×L×M weanling piglets; 50 head): 633 kg | Daily feed consumption (D×L×M weanling piglets): 717.4 g/head | Weight gain (D×L×M weanling piglets): 12.66 kg/head | ADG (D×L×M weanling piglets; average daily weight gain): 422 g/head | Total feed consumption, Improvement (D×L×M weanling piglets; difference vs control, 50 head): +66.3 kg | Total final weight, Improvement (D×L×M weanling piglets; difference vs control, 50 head): +75 kg | Total weight gain, Improvement (D×L×M weanling piglets; difference vs control, 50 head): +72.5 kg | ADG, Improvement (D×L×M weanling piglets; difference vs control): +48 g/head | Daily feed consumption, Improvement (D×L×M weanling piglets; difference vs control): +44.2 g/head | FCR, Improvement (D×L×M weanling piglets; difference vs control): −0.1 | Final Wt., Improvement (D×L×M weanling piglets; difference vs control): +1.5 kg/head | Weight gain, Improvement (D×L×M weanling piglets; difference vs control): +1.45 kg/head | FCR (D×L×M weanling piglets; feed conversion rate): 1.70 | Diarrhea (D×L×M weanling piglets; of 50 head): 21 head | Diarrhea, Improvement (%) (D×L×M weanling piglets; relative to control): −43.24% | FCR, Improvement (%) (D×L×M weanling piglets; relative to control): −5.56% | ADG, Improvement (%) (D×L×M weanling piglets; relative to control, listed as Cysteamine): 12.83% | ADG, Improvement (%) (D×L×M weanling piglets; relative to control, listed as cysteamine hydrochloride): 12.83% | decrease in feed conversion rate (FCR) (D×L×M weanling piglets; [2]): 5.56% | improvement in diarrhea condition (D×L×M weanling piglets; [2]): 43.24% | Final Wt. (D×L×M weanling piglets; weanling piglets, Treatment (text: 90 g cysteamine hydrochloride per ton of feed)): 19.46 kg/head | Birth weight per litter, Improvement (pregnant pig sow; difference vs control): 2.50 kg | Birth weight per piglet, Improvement (pregnant pig sow; difference vs control): 0.23 kg/head | Live piglet born rate, Improvement (pregnant pig sow; difference vs control): 0.00% | Body weight of weaned piglet, Improvement (pregnant pig sow; difference vs control, weaning age 19 days): 0.46 kg/head | Total piglet born (pregnant pig sow; late phase pregnant sow, 8 sows, Dosage (text: 150 g cysteamine hydrochloride per ton feed), from 84 days of pregnant to weaning): 82 head | Total live piglet born (pregnant pig sow; late phase pregnant sow, 8 sows, Dosage (text: 150 g per ton feed)): 82 head | Birth weight per litter (pregnant pig sow; [3]): 21.32 kg | Birth weight per piglet (pregnant pig sow; [3]): 2.08 kg/head | Live piglet born per litter (pregnant pig sow; [3]): 10.29 head | Live piglet born rate (pregnant pig sow; [3]): 100.00% | Piglet born per litter (pregnant pig sow; late phase pregnant sow, Dosage (text: 150 g per ton feed), from 84 days of pregnant to weaning): 10.29 head | Live piglet born rate, Improvement (%) (pregnant pig sow; relative to control): 0.00% | Birth weight per litter, Improvement (%) (pregnant pig sow; [4]): 13.28% | Birth weight per piglet, Improvement (%) (pregnant pig sow; [4]): 12.43% | Birth weight per litter, Improvement (%) (pregnant pig sow; [5]): 13.28% | Birth weight per piglet, Improvement (%) (pregnant pig sow; [5]): 12.43% | Body weight of weaned piglet, Improvement (%) (pregnant pig sow; relative to control, weaning age 19 days, listed as Cysteamine): 8.00% | Body weight of weaned piglet, Improvement (%) (pregnant pig sow; relative to control, weaning age 19 days, listed as cysteamine hydrochloride): 8.00% | Body weight of weaned piglet (pregnant pig sow; weaning age 19 days, Dosage (text: 150 g per ton feed)): 6.21 kg/head | Total feed consumption (small-fat-tail sheep; 20 head, 900 g/tonnage): 1019.38 kg | Final weight (small-fat-tail sheep; Dosage 900 g/tonnage): 28.92 kg/head | Weight gain (small-fat-tail sheep; Dosage 900 g/tonnage): 3.350 kg/head | daily weight gain (small-fat-tail sheep; Dosage 900 g/tonnage): 95.71 g/head/day | Concentrate (small-fat-tail sheep; [6]): 245 kg | Hay (small-fat-tail sheep; [6]): 350.00 kg | Silage (small-fat-tail sheep; [6]): 424.38 kg | ADG vs control (small-fat-tail sheep; [7]): statistically significant increase | Daily weight gain, Improvement (%) (small-fat-tail sheep; [8]): 30.9% | Silage, Improvement (%) (small-fat-tail sheep; [8]): −16.22% | Weight gain, Improvement (%) (small-fat-tail sheep; [8]): 30.9% | Total feed consumption (crossbreed sheep; 20 head, 900 g/tonnage): 1001.2 kg | ADG (crossbreed sheep; Dosage 900 g/tonnage): 82.29 g/head/day | Final weight (crossbreed sheep; Dosage 900 g/tonnage): 29.59 kg/head | Weight gain (crossbreed sheep; Dosage 900 g/tonnage): 2.88 kg/head | Concentrate (crossbreed sheep; [6]): 245 kg | Hay (crossbreed sheep; [6]): 350.0 kg | Silage (crossbreed sheep; [6]): 406.2 kg | ADG vs control (crossbreed sheep; [7]): statistically significant increase | ADG, Improvement (%) (crossbreed sheep; [8]): 46.2% | Silage, Improvement (%) (crossbreed sheep; [8]): −5.14% | Weight gain, Improvement (%) (crossbreed sheep; [8]): 46.2% | daily weight gain ([1]; Test Group III, 6 g/head/day, p<0.05 vs Control, Test Group I & II): 1.217 kg | Feed Conversion Rate (FCR), Concentrated feed ([1]; Test I, 1.5 g/head/day): 3.54 | Feed Conversion Rate (FCR), Corn Silage ([1]; Test I, 1.5 g/head/day): 14.14 | Feed Conversion Rate (FCR), Raw Grass ([1]; Test I, 1.5 g/head/day): 1.21 | Final Wt. ([1]; Test I, 1.5 g/head/day): 423.8 kg | Feed Conversion Rate (FCR), Concentrated feed ([1]; Test II, 3 g/head/day): 3.70^a | Feed Conversion Rate (FCR), Corn Silage ([1]; Test II, 3 g/head/day): 14.42^a | Feed Conversion Rate (FCR), Raw Grass ([1]; Test II, 3 g/head/day): 1.27^a | Final Wt. ([1]; Test II, 3 g/head/day): 420.5 kg | Feed Conversion Rate (FCR), Raw Grass ([1]; Test III, 6 g/head/day): 1.06^a | Final Wt. ([1]; Test III, 6 g/head/day): 432.7 kg | Feed Conversion Rate (FCR), Concentrated feed [1, 9]: 3.09^b | Feed Conversion Rate (FCR), Corn Silage [1, 9]: 12.87^b | Dressing % (fattening pigs; 150 g cysteamine hydrochloride per ton of feed, slaughter at 85-90 kg, five animals): 69.012% | Lean:Fat Ratio (fattening pigs; [10]): 0.105 | Loin Eye Area (fattening pigs; [10]): 4.850 sq.cm | Backfat Thickness (fattening pigs; 150 g per ton of feed, slaughter at 85-90 kg, P < 0.05 vs Non-Cysteamine HCl): 1.91^a cm | backfat vs pigs fed diet without cysteamine hydrochloride (fattening pigs; in words): significantly thinner | differences in dressing percentage, loin eye area, and lean:fat ratio vs diet without cysteamine hydrochloride (fattening pigs; in words): no significant differences | loin cut and lean trimmings as a percent of the live-weight vs diets without cysteamine hydrochloride (fattening pigs; in words): significantly higher | Villi Length, Small Intestines (pig intestine villi; 150 g of cysteamine hydrochloride per ton of feed, same letter as Non-Cysteamine (p>0.05), unit only in method b111): 2.15 ± 0.09^A μm | goblet cells in the small and large intestine vs non-Cysteamine-treated (pig intestine villi; [11]): noticeably larger and highly distended | length of small intestinal villi vs non-Cysteamine treated (pig intestine villi; [11]): longer | number of small intestinal villi vs non-Cysteamine treated (pig intestine villi; [11]): more numerous
